Measurements from PubChem BioAssay (NCI).
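Following 48 hours of exposure in 96-well plates, responses at five concentrations were used to interpolate endpoints linearly. Here, GI50 denotes the concentration required for 50% inhibition of growth. At the TGI there is no net growth.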

Key:
Test in all cases: NCI tumour cell line growth inhibition, 48 h
MDA-MB-231 breast = tested on: MDA-MB-231 breast
OVCAR-3 ovarian = tested on: OVCAR-3 ovarian
HOP-92 NSCLC = tested on: HOP-92 NSCLC
PC-3 prostate = tested on: PC-3 prostate
SR leukemia = tested on: SR leukemia
MDA-N = tested on: MDA-N
K-562 leukemia = tested on: K-562 leukemia
HS 578T breast = tested on: HS 578T breast
RPMI-8226 leukemia = tested on: RPMI-8226 leukemia

Structure (SMILES)	TGI (MDA-MB-231 breast) [µM]	TGI (OVCAR-3 ovarian) [µM]	TGI (HOP-92 NSCLC) [µM]	TGI (PC-3 prostate) [µM]	TGI (SR leukemia) [µM]	TGI (MDA-N) [µM]	TGI (K-562 leukemia) [µM]	TGI (HS 578T breast) [µM]	TGI (RPMI-8226 leukemia) [µM]	GI50 (MDA-MB-231 breast) [µM]	GI50 (OVCAR-3 ovarian) [µM]	GI50 (HOP-92 NSCLC) [µM]	GI50 (PC-3 prostate) [µM]	GI50 (SR leukemia) [µM]	GI50 (K-562 leukemia) [µM]
c1ccc(CCNCc2ccco2)nc1	> 100	> 100	> 100	> 100	> 100	> 100	> 33.6	> 100	> 67.9	–	–	–	–	–	–
O=C1CCC2(CCO1)OCCO2	> 100	> 100	–	> 100	> 100	> 100	> 100	> 100	–	–	–	–	–	–	–
O=C1C=CC(=O)C(CNc2ccc(C(=O)OC34CC5CC(CC(C5)C3)C4)cc2)=C1	36.2	14.4	13.7	22	> 29.3	19.2	> 49.3	10.9	7.01	–	–	–	–	–	–
COc1cccc(CC(C)NCC(O)c2ccc(O)c(O)c2)c1 (stereo not drawn)	60.1	> 100	> 100	> 100	67.4	–	> 100	> 100	> 100	–	–	–	–	–	–
CC(C)=CCC[C@@H](C)C1=C(Nc2ccccc2Cl)C(O)=C(C)C(=O)C1=O	> 100	16.5	29.3	> 100	> 57.6	27	> 64.1	13.1	> 28.7	–	–	–	–	–	–
Cc1nc2c3c(ncn2n1)Oc1c(c(-c2ccccc2)nn1-c1ccccc1)C3c1ccc(Cl)cc1 (stereo not drawn)	> 100	> 100	> 100	> 100	> 100	> 100	> 100	74.1	> 100	–	–	–	–	–	–
Cc1ccc(C(=O)O)c(CC2Cc3c(C)cccc3C2=O)c1 (stereo not drawn)	> 100	> 100	> 100	> 100	> 100	> 100	> 100	> 100	> 100	–	–	–	–	–	–
Cc1cccc2c1[nH]c1[nH]c(=O)[nH]c(=O)c12	> 100	> 100	> 100	–	> 100	> 100	> 100	> 100	> 100	–	–	–	–	–	–
C(=C\c1cccc(/C=C/c2ccccn2)n1)/c1ccccn1	> 100	> 100	> 100	> 100	> 100	> 100	> 100	44.3	> 100	–	–	–	–	–	–
N#Cc1nc(CCCCCN2C(=O)c3ccccc3C2=O)oc1N	> 100	> 100	–	> 100	> 100	> 100	> 100	> 100	> 100	–	–	–	–	–	–
O=C(NCc1cccc(C(F)(F)F)c1)c1cc2sccc2nc1C(F)(F)F	> 100	> 100	> 100	> 100	> 100	> 100	> 100	94.1	> 100	–	–	–	–	–	–
Cc1ccc(C2=NOC(=O)[C@@H]3CCCC[C@@H]23)cc1	> 100	> 100	–	> 100	> 100	> 100	> 100	> 100	> 100	–	–	–	–	–	–
N=C1N(S(=O)(=O)c2ccccc2)[C@@H](Cc2ccccc2)[C@H](c2ccccc2)C1(c1ccccc1)c1ccccc1	> 100	> 100	–	> 100	> 100	> 100	> 100	> 100	> 100	–	–	–	–	–	–
C=C(CCC(C)C1CCC2C3=C(C(=O)CC21C)C1(C)CCC(=O)[C@@H](C)C1CC3=O)C(C)C(=O)O (stereo partly drawn)	> 100	> 100	78.7	> 100	74.8	–	35.2	> 100	–	–	–	–	–	–	–
CN1CCN(c2c(Cl)cc(Cl)c3[nH]c4ccccc4c(=O)c23)CC1	28.7	33.5	10.9	23.3	> 100	20.7	> 48.6	22.6	56.8	–	–	–	–	–	–
CC[N+]1(C)CCC(O)(/C=C/c2ccc(OC)cc2)C(C(=O)/C=C/c2ccc(OC)cc2)C1 (stereo not drawn)	> 53.9	53	34.5	42.6	–	> 50.1	4.5	> 85	1.04	–	–	–	–	–	–
CCOC(=O)C1(C(=O)OCC)[C@H](c2ccccc2)C2=NO[C@@H]3CCC[C@H]1[C@H]23	> 100	96.8	> 100	> 100	> 100	> 100	> 100	> 100	> 100	–	–	–	–	–	–
CN(C)CCNC(=O)c1ccc(NCCCN(C)CCCNc2ccc3c(=O)n(CCN(C)C)c(=O)n4c5ccccc5c(=O)c2c34)c2c(=O)c3ccccc3[nH]c12	0.234	0.23	2.92	0.249	–	0.199	1.06	–	0.157	–	–	–	–	–	–
CCOC(=O)C(NC(=O)N(C1=NCC(C)S1)C1CCCCC1)(OC)C(F)(F)F (stereo not drawn)	> 100	71.1	> 100	> 100	> 100	> 100	> 100	> 100	–	–	–	–	–	–	–
COC(=O)[C@H]1[C@@H](C(C)C)O[C@@H](C(C)C)O[C@H]1C(F)(F)F	> 100	> 100	> 100	> 100	> 100	> 100	> 100	> 100	> 100	–	–	–	–	–	–
C[C@@H](O)C(=O)N1[C@@H]2CC3CC[C@]2(CS1(=O)=O)C3(C)C	> 100	> 100	> 100	> 100	58.5	–	> 100	–	> 100	–	–	–	–	–	–
Clc1ccc(N2N=C(c3cccc(Nc4ccncc4)c3)CC2c2ccc3c(c2)OCO3)cc1 (stereo not drawn)	2.64	3.07	2.86	3.27	4.76	–	5.39	–	–	1.29	1.63	1.24	1.58	2	2.09
O=[N+]([O-])c1ccc2nc(-c3ccccn3)c(-c3ccccn3)nc2c1	–	> 100	> 100	> 100	> 100	> 100	–	> 100	> 100	–	–	–	–	–	–
